The nature of this assay: In vitro inhibitory activity in the fMLP-stimulated phospholipase (PLD) assay.

In ChEMBL document CHEMBL1150468, “Sch 53823 and Sch 53825, novel fungal metabolites with phospholipase D inhibitory activity” (Bioorg Med Chem Lett, 1996) one finds IC50 data, which are given here for four compounds.

For `Oc1c(Cl)ccc2c1[C@@H](O)[C@H]1O[C@H]1C21Oc2cccc3cccc(c23)O1`, the IC50 – broadly, the concentration that inhibits the measured activity by half – was 19 µM. The value for `CC(=O)Oc1cccc2c1[C@@H](OC(C)=O)[C@H]1O[C@H]1C21Oc2cccc3cccc(c23)O1` was 17 µM; that for `Oc1cccc2c1[C@@H](O)[C@H]1O[C@H]1C21Oc2cccc3cccc(c23)O1` was 24 µM; that for `CC(=O)Oc1c(Cl)ccc2c1[C@@H](OC(C)=O)[C@H]1O[C@H]1C21Oc2cccc3cccc(c23)O1` was greater than 50 µM.
